Reference: patent publication US8586611B2 (priority 2005, dated 2013)

Columns and labels:
Type in all cases: in vivo
Plasmopara viticola = assay: Test B: grape downy mildew, spray 24 h after inoculation (disease rating, 100 = 100% disease control)
Method in brief: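 This is a curative spray test, applied 24 h after inoculation. Compounds in 50/50 acetone–water with 250 ppm Trem 014 surfactant were sprayed to run-off on P. viticola-infected seedlings, with 200 ppm equating to 500 g/ha. Plants were kept 5 days in a 20 °C growth chamber, then 24 h humid, and scored 0–100 for disease control relative to controls.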

[1] = system: Erysiphe graminis f. sp. tritici; assay: Test E: wheat powdery mildew, spray the day before inoculation (disease rating, 100 = 100% disease control)
Method in brief: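 Protective test: spores of E. graminis f. sp. tritici dusted on wheat seedlings one day after run-off spraying of test suspension (acetone/water with 250 ppm surfactant; 200 ppm = 500 g/ha). Ratings after 7 days in growth chamber at 20° C, 100 = full control, 0 = none, relative to controls.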

[2] = system: Pseudoperonospora cubensis; assay: Test F: cucumber downy mildew, DMSO/acetone/water test suspension, spray the day before inoculation (disease rating, 100 = 100% disease control)
From the text: The test compounds were first dissolved in dimethyl sulfoxide (DMSO) in an amount equal to 4% of the final volume and then suspended at the desired concentration (in ppm) in acetone and purified water (30/70 mix by volume). The resulting test suspensions were then used in test F. Spraying a 250 ppm test suspension on the test plants was the equivalent of a rate of 250 g/ha.
The test suspension was sprayed on cucumber seedlings. The following day the seedlings were inoculated with a spore suspension of Pseudoperonospora cubensis (the causal agent of cucumber downy mildew) and incubated in a saturated atmosphere at 20° C. for 24 h, and then moved to a growth chamber at 20° C. for 6 days, after which disease ratings were made.
Results for Tests A-F are given in Table A. In the table, a rating of 100 indicates 100% disease control and a rating of 0 indicates no disease control (relative to the controls). A dash (-) indicates no test results.

Phytophthora infestans [3] = assay: whole plant or invertebrate; conditions: tomato late blight
Phytophthora infestans [4] = assay: whole plant or invertebrate; conditions: tomato late blight; remark: listed apart in the source
[5] = spray 24 h after inoculation, compounds without asterisk (not 40 or 10 ppm)
[6] = spray the day before inoculation, compounds without asterisk (not 40 or 10 ppm)
[7] = DMSO/acetone/water suspension, spray the day before inoculation, compounds without asterisk
[8] = spray 17 h after inoculation, compounds without asterisk (not 40 or 10 ppm)

Row | SMILES | Test B disease rating (100 = 100% disease control, 0 = no disease control) (Plasmopara viticola; [5]) [%] | Test E disease rating (100 = 100% disease control, 0 = no disease control) [1, 6] [%] | Test F disease rating (100 = 100% disease control, 0 = no disease control) [2, 7] [%] | Test D disease rating (100 = 100% disease control, 0 = no disease control) (Phytophthora infestans [3]; [8]) [%] | Test C disease rating (100 = 100% disease control, 0 = no disease control) (Phytophthora infestans [4]; [6]) [%] | Test B disease rating (100 = 100% disease control, 0 = no disease control) (Plasmopara viticola; sprayed 24 h after inoculation, unmarked compounds (no asterisk, not 40 or 10 ppm)) | Test E disease rating (100 = 100% disease control, 0 = no disease control) ([1]; sprayed the day before inoculation, 7 days at 20° C., unmarked compounds (no asterisk, not 40 or 10 ppm)) | Test F disease rating (100 = 100% disease control, 0 = no disease control) ([2]; DMSO/acetone/water test suspension, sprayed the day before inoculation, unmarked compounds (no asterisk)) | Test D disease rating (100 = 100% disease control, 0 = no disease control) (Phytophthora infestans [3]; sprayed 17 h after inoculation, unmarked compounds (no asterisk, not 40 or 10 ppm)) | Test C disease rating (100 = 100% disease control, 0 = no disease control) (Phytophthora infestans [4]; sprayed the day before inoculation, unmarked compounds (no asterisk, not 40 or 10 ppm))
1 | Cc1ccc(C)c(CC(=O)N2CCC(c3nc(C(=O)N(C)[C@H](C)c4ccc(F)cc4)cs3)CC2)c1 [compound 64] | 100 | 92 | 93 | 95 | 100 |  |  |  |  | 
2 | C[C@H](c1ccccc1)N(C)C(=O)c1csc(C2CCN(C(=O)Cc3cc(Cl)ccc3Br)CC2)n1 [compound 86] | 99 | 0 | 86 | 100 | 99 |  |  |  |  | 
3 | COc1ccc(Br)cc1CC(=O)N1CCC(c2nc(C(=O)N(C)[C@H](C)c3ccccc3)cs2)CC1 [compound 81] | 100 | 0 | 50 | 100 | 100 |  |  |  |  | 
4 | CC[C@@H](NC(=O)c1csc(C2CCN(C(=O)Cc3cccc(Br)c3)CC2)n1)c1ccccc1 [compound 278] |  |  |  |  |  | 0 | 0 | 93 | 0 | 33
5 | C[C@H](c1ccccc1)N(C)C(=O)c1coc(C2CCN(C(=O)Nc3cccc(C(F)(F)F)c3)CC2)n1 [compound 158] | 9 | 0 | 90 | 0 | 95 |  |  |  |  | 
6 | Cc1cc(C(F)(F)F)nn1CC(=O)N1CCC(c2nc(C(=O)N(C)C3CCCc4cc(O)ccc43)cs2)CC1 (stereo not drawn) [compound 190] | 8 | 0 | 93 | 99 | 100 |  |  |  |  | 
7 | Cc1cc(C(F)(F)F)nn1CC(=O)N1CCC(c2nc(C(=O)N(C)[C@H](C)c3ncc(Cl)cc3Cl)cs2)CC1 [compound 143] | 69 | 0 | 50 | 99 | 100 |  |  |  |  | 
8 | Cc1ccc(C)c(CC(=O)N2CCC(c3nc(C(=O)N(C)[C@H](C)c4ccc(Br)cc4)cs3)CC2)c1 [compound 63] | 100 | 0 | 99 | 93 | 100 |  |  |  |  | 
9 | Cc1ccc(C)c(CC(=O)N2CCC(c3nc(C(=O)N(C)C4CCCC(C)C4C)cs3)CC2)c1 (stereo not drawn) [compound 177] | 86 | 0 | 43 | 79 | 100 |  |  |  |  | 
